Results on two compounds are retold here after patent US20150197497A1, “SELECTIVE INHIBITORS OF HISTONE DEACETYLASE ISOFORM 6 AND METHODS THEREOF” (DANA-FARBER CANCER INSTITUTE, INC., priority 2011, published 2015).

One assay concerns the target T1, HDAC6 (Homo sapiens, UniProt Q9UBN7).
T1 construct: Recombinant, full-length HDAC protein (BPS Biosciences) was incubated with fluorophore conjugated substrate; purchased BPS Biosciences
T1 sequence (Q9UBN7 1-1215): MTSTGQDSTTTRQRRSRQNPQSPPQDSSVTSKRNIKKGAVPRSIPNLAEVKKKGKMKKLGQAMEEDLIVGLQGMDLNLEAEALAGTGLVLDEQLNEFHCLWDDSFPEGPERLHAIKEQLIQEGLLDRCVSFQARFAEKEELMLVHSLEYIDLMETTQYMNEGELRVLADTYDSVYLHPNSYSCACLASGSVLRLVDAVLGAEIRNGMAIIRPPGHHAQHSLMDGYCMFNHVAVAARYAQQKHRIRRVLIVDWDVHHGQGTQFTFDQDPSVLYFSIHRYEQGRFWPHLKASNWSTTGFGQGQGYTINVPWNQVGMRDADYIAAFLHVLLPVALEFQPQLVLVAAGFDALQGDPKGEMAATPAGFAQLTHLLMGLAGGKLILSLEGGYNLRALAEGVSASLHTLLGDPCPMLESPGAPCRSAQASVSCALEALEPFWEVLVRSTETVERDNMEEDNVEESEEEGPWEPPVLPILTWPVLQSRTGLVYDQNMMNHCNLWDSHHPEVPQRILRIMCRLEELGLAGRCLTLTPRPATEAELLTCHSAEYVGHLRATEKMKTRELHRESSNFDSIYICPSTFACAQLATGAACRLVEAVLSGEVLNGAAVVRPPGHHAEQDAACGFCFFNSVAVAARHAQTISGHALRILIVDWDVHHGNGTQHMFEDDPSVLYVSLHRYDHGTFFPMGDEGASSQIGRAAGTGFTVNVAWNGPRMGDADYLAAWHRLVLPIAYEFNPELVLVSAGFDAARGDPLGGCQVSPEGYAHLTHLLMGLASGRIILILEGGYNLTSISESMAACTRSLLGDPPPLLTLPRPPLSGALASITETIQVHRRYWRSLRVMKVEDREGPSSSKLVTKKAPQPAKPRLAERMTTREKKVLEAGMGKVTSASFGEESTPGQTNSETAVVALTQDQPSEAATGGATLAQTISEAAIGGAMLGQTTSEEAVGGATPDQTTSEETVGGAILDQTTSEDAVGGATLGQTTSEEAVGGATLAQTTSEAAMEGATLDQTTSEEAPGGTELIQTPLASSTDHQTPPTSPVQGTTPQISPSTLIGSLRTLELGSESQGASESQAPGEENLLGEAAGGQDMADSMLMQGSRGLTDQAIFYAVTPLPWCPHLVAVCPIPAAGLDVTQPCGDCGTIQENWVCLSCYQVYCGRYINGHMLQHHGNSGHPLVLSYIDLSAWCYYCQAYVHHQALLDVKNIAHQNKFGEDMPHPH
The assay is described as follows: In vitro HDAC enzyme inhibition assay, HDAC6. As to conditions: recombinant full-length HDAC6, substrate MAZ1600 9 μM. Type of assay: biochemical. The procedure:
In vitro Histone Deacetylase enzyme assays were performed using Class I (isoforms: HDAC1, HDAC2, HDAC3 and HDAC8), class IIa (isoforms: HDAC4, HDAC5, HDAC7 and HDAC9) and class IIb (isoform HDAC6).
HDAC activities were determined in vitro with an optimized homogenous assay performed in a 384-well plate. Recombinant, full-length HDAC protein (BPS Biosciences) was incubated with fluorophore conjugated substrate, MAZ1600 and MAZ1675, at Km=[S]. […] Reactions were performed in assay buffer (50 mM HEPES, 100 mM KCl, 0.001% Tween-20, 0.05% BSA, 200 μM tris(2-carboxyethyl)phosphine (TCEP), pH 7.4) and followed for fluorogenic release of 7-amino-4-methylcoumarin from substrate upon deacetylase and trypsin enzymatic activity. Fluorescence measurements were obtained every five minutes using a multilabel plate reader and plate-stacker (Envision; Perkin-Elmer). Each plate was analyzed by plate repeat, and the first derivative within the linear range was imported into analytical software (Spotfire DecisionSite and GraphPad Prism). Replicate experimental data from incubations with inhibitor were normalized to controls.

The next assay relates to acetylated tubulin. The assay is described as follows: High-content image analysis of induction of acetylated tubulin in A549 cells.
In a further assay the test system is acetylated histones. The assay is described as follows: High-content image analysis of induction of acetylated histones in A549 cells. As to conditions: for EC50: Homo sapiens, A549, 8 h, read-out: EC50 for half-maximal induction of acetylated histones (AcHistone).

Each structure is given as a SMILES string.

One may read the IC50 as the midpoint of a concentration-inhibition curve. As usually defined, the EC50 is the midpoint of the concentration-response curve. As to `Cc1ccc2c(c1)nnn2Cc1ccc(C(=O)NO)cc1` [C2, N-hydroxy-4-((5-methyl-1H-benzo[d][1,2,3]triazol-1-yl)methyl)benzamide], at HDAC6, the IC50 was determined as 1470 nM. Further, the 50% effective concentration (EC50) worked out at 124 nM in the assay with acetylated tubulin (Homo sapiens, A549, 8 h, read-out: EC50 for half-maximal induction of acetylated tubulin (AcTubulin)) and 2520 nM in the assay on acetylated histones. Further, the “AcHistone/AcTubulin in cell selectivity toward HDAC6” value in the assay with acetylated tubulin (ratio of EC50 acetylated histone to EC50 acetylated tubulin, A549 cells) is 20.3.

With `O=C(CCCCCCC(=O)Nc1ccccc1)NO` [SAHA, suberoylanilide hydroxamic acid, reference compound], the “levels of acetylated tubulin, dose response (in words)” value in the assay with acetylated tubulin (A549 cells, FIG. 11) was “dose-dependent increase”. Also, the “levels of acetylated histone, dose response (in words)” value in the assay with acetylated histones (A549 cells, FIG. 11) is on record as “dose-dependent increase”. The EC50 in the assay on acetylated histones amounted to 143 nM.
